The nature of data set [1]: Cyclic voltammetry (CV) in three-electrode cells. Format: physicochemical. The settings on record: for Peak to peak potential difference (ΔEp) / Ratio of anodic peak current (Ipa) to cathodic peak current (Ipc) (Ipa/Ipc) @50 mV s^−1: 1st event (or only value). The procedure: All electrochemical examinations were carried out using a Biologic VMP3 electrochemical workstation in an Ar-filled glove box (MOTek, negligible O2 and H2O, tested by the ketyl solution).
Cyclic voltammetry (CV) was conducted in three-electrode cells comprised of glassy carbon (GC; diameter (d)=3 mm) as the working electrode (WE), a platinum wire as the counter electrode (CE), and a leak-free Ag/AgCl as the reference electrode (RE). The GC electrodes were polished using alumina slurry before testing (ALS Co., Ltd).
After CV analysis, ferrocene (Fc, ferrocene, 98%, Sigma-Aldrich) was added to the cell to measure its redox potential, and the measured sample potential was converted to the Fc/Fc^+.

The nature of data set [2]: Solubility test (UV-vis calibration curves, maximum solubility). The settings on record: for solubility: organic solvent or mixture, thermodynamic from solid.
Where [3] appears, read: after 100 cycles (in parentheses).
Setting [4] is: initial, 10 mM in 0.1 M TBABF4/MeCN.
Where [5] appears, read: 1st redox event (or the only value given), 10 mM in 0.1 M TBABF4/MeCN.
[6] abbreviates: 2nd redox event, 10 mM in 0.1 M TBABF4/MeCN.
[7] abbreviates: MeCN, Solubility (M) in MeCN, in MeCN.

In the case of `Cn1c(-c2cc[n+](C)cc2)nc2ccccc21` [BIP^+·BF4^−, 1-methyl-4-(1-methyl-1H-benzo[d]imidazol-2-yl)pyridin-1-ium tetrafluoroborate], in data set [1] (setting [3]), the “Peak to peak potential difference (ΔEp)” value is 99 (99) mV and the “Ratio of anodic peak current (Ipa) to cathodic peak current (Ipc) (Ipa/Ipc) @50 mV s^−1” value (“Ratio … (Ipa/Ipc) @50 mV s^−1” below) is on record as 0.73. For the same compound, in data set [1] (setting [4]), the “Peak to peak potential difference (ΔEp)” value is on record as 99 (99) mV and the “Ratio … (Ipa/Ipc) @50 mV s^−1” value is 0.71. Besides, the “Formal potential (E^o′)” value in data set [1] (setting [5]) is −1.41 V vs. Fc/Fc^+.

With `C[n+]1ccc(-c2nc3ccccc3o2)cc1` [BOP^+·BF4^−, 4-(benzo[d]oxazol-2-yl)-1-methylpyridin-1-ium tetrafluoroborate], in data set [1] (setting [3]), the “Peak to peak potential difference (ΔEp)” value is 1st = 105 (105) mV and the “Ratio … (Ipa/Ipc) @50 mV s^−1” value is reported as 0.46. Moreover, in data set [1] (setting [4]), the “Peak to peak potential difference (ΔEp)” value is given as 1st = 105 (105) mV and the “Ratio … (Ipa/Ipc) @50 mV s^−1” value stood at 0.79. Besides, the “Formal potential (E^o′)” value in data set [1] (setting [5]) came to 1st = −1.15 V vs. Fc/Fc^+.

For the compound `C[n+]1ccc(-c2nc3ccccc3s2)cc1` [BTP^+·BF4^−, 4-(benzo[d]thiazol-2-yl)-1-methylpyridin-1-ium tetrafluoroborate], in data set [2] (0.5 M TBABF4 in MeCN, maximum solubility in electrolyte solution, 0.5 M TBABF4/MeCN), the solubility is 0.087 M. The “Solubility (M) 0.5M TBAPF6/MeCN” value in data set [2] (electrolyte solution, head prints 0.5M TBAPF6/MeCN) came out at 0.087 M. In data set [2] (in MeCN), the “Solubility (M) MeCN” value was found to be 0.26 M, the “Solubility (M) in MeCN” value came out at 0.26 M and the “maximum solubility in MeCN” value amounted to 260 mM.

Regarding `CCCCCCCCCC[n+]1ccc(-c2nc3ccccc3s2)cc1` [Dec-BTP^+·BF4^−, 4-(benzo[d]thiazol-2-yl)-1-decylpyridin-1-ium tetrafluoroborate], the “Peak to peak potential difference (ΔEp)” value in data set [1] (setting [3]) is reported as 102 mV; in data set [1] (setting [4]), 99 mV. Besides, the “Ratio … (Ipa/Ipc) @50 mV s^−1” value in data set [1] (setting [3]) is given as 0.91; in data set [1] (setting [4]), 0.93. The “Formal potential (E^o′)” value in data set [1] (setting [5]) was 1st = −1.24 V vs. Fc/Fc^+; in data set [1] (setting [6]), 2nd = −1.96 V vs. Fc/Fc^+. Moreover, the “potential shift after CV cycles” value in data set [1] (FIG. 7) is reported as “positive (+) potential shift”. For the same compound, the solubility in data set [2] (setting [7]) is 0.07 M.

`c1ccc2sc(-c3cc[n+](CCCCC[n+]4ccc(-c5nc6ccccc6s5)cc4)cc3)nc2c1` [Di-BTP^2+·2PF6^−, 1,1′-(pentane-1,5-diyl)bis(4-(benzo[d]thiazol-2-yl)pyridin-1-ium) hexafluorophosphate]: the solubility in data set [2] (setting [7]) was 0.1 M.

Regarding `Cc1cc(-c2nc3ccccc3s2)cc(C)[n+]1C` [DiMe-BTP^+·BF4^−, 4-(benzo[d]thiazol-2-yl)-1,2,6-trimethylpyridin-1-ium tetrafluoroborate], the “Peak to peak potential difference (ΔEp)” value is 81 mV in data set [1] (setting [3]) and 89 mV in data set [1] (setting [4]). Besides, the “Ratio … (Ipa/Ipc) @50 mV s^−1” value was determined as 0.88 in data set [1] (setting [3]) and 0.89 in data set [1] (setting [4]). In addition, the “Formal potential (E^o′)” value was determined as 1st = −1.33 V vs. Fc/Fc^+ in data set [1] (setting [5]) and 2nd = −1.94 V vs. Fc/Fc^+ in data set [1] (setting [6]). The “cyclability in the CV profile” value in data set [1] (100 CV cycles, FIGS. 6 and 7) is recorded as “excellent cyclability”.

With `C[N+](C)(C)CCC[n+]1ccc(-c2nc3ccccc3s2)cc1` [TMAP-BTP^2+·2PF6^−, 4-(benzo[d]thiazol-2-yl)-1-(3-(trimethylammonio)propyl)pyridin-1-ium hexafluorophosphate], the solubility in data set [2] (0.5 M TBAPF6 in MeCN, maximum solubility in electrolyte solution, 0.5 M TBAPF6/MeCN) amounted to 0.026 M. Further, in data set [2] (in MeCN), the “Solubility (M) MeCN” value was found to be 0.25 M, the “Solubility (M) in MeCN” value turned out to be 0.25 M and the “maximum solubility in MeCN” value was 250 mM.

These data come from patent US12643893B2, “Heteroaryl-pyridinium compound and redox flow battery comprising the same” (Korea Advanced Institute of Science and Technology, priority 2021, dated 2026).
